Data from patent publication US6921821B2, “Antagonists of melanin concentrating hormone receptor” (Abbott Laboratories, priority 2002, dated 2005).
Counter-ions that a name gives are not always drawn.

Each molecule was assayed against T1, murine MCHR (Mus musculus, UniProt Q8JZL2) (assay: Assay for release of intracellular calcium (FLIPR, Fluo-4), inhibition of MCH-induced Ca++ flux). Details: test compound at a dose of 10 μM, HEK293 cells expressing the murine MCHR, read-out: inhibition of MCH (MCH induced Ca++ flux / fluorescence).
T1 construct: expressed in transfected cells; host or cells: HEK293
Assay type: cell-based
Summary of the method: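 HEK293 cells expressing murine MCHR were loaded with Fluo-4AM (2.5 μM) and given compound (40 μM stock in 4% DMSO), with 3 min monitoring for agonism. They were then challenged with mouse MCH (12 nM as added) and FLIPR fluorescence followed 3 min more. % inhibition of MCH-induced Ca++ flux was calculated against baseline and no-compound signals.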

T1 sequence (Q8JZL2 whole entry): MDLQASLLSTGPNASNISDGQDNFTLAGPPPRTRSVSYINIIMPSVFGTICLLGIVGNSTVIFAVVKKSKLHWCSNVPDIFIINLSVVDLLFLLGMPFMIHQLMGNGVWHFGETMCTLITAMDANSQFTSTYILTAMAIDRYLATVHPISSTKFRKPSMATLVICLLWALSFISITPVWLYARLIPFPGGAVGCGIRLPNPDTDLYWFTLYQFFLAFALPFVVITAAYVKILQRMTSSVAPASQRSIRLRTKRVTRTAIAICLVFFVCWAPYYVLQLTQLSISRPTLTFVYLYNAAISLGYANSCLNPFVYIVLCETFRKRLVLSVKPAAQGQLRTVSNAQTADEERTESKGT

Inhibition at 10 µM, ≥ 50%:
C=Cc1ccc2oc(=O)cc(NC3CCN(Cc4ccc5c(c4)OCCO5)CC3)c2c1 [II-57, 4-{1-(2,3-Dihydrobenzo{1,4}dioxin-6-ylmethyl)-piperidin-4-ylamino}-6-vinyl-chromen-2-one]
O=c1cc(NC2CCN(C/C=C/c3ccccc3F)CC2)c2ccccc2o1 [III-14, 4-{1-[3-(2-Fluoro-phenyl)-allyl]-piperidin-4-ylamino}-chromen-2-one]
N#Cc1c(NC2CCN(Cc3ccc4ccccc4c3)CC2)c2cc(Cl)ccc2[nH]c1=O [Compound V-53, 6-Chloro-4-(1-naphthalen-2-ylmethyl-piperidin-4-ylamino)-2-oxo-1,2-dihydro-quinoline-3-carbonitrile]
N#Cc1ccc2oc(=O)cc(NC3CCN(Cc4ccc5occc5c4)CC3)c2c1 [II-114, 4-(1-Benzofuran-5-ylmethyl-piperidin-4-ylamino)-2-oxo-2H-chromene-6-carbonitrile]
CC(=O)c1ccc(CN2CCC(Nc3cc(=O)oc4ccc(Cl)cc34)CC2)cc1 [II-48, 4-[1-(4-Acetyl-benzyl)-piperidin-4-ylamino]-6-chloro-chromen-2-one]
O=c1cc(NC2CCN(C/C=C/c3ccccc3F)CC2)c2cc(Cl)ccc2o1 [III-56, 6-Chloro-4-{1-[3-(2-fluoro-phenyl)-allyl]-piperidin-4-ylamino}-chromen-2-one]
COc1ccc2c(c1)c(NC1CCN(Cc3ccc4c(c3)OCO4)CC1)cc(=O)n2C [Compound V-8, 4-(1-Benzo[1,3]dioxol-5-ylmethyl-piperidin-4-ylamino)-6-methoxy-1-methyl-1H-quinolin 2-one]
O=c1cc(NC2CCN(Cc3ccc(OCCCN4CCCCC4)cc3)CC2)c2cc(Cl)ccc2o1 [II-49, 6-Chloro-4-{1-[4-(3-piperidin-1-yl-propoxy)-benzyl]-piperidin-4-ylamino}-chromen-2-one; Double TFA Salt]
CN(C)C(=O)c1c(NC2CCN(Cc3ccc4c(c3)OCO4)CC2)c2cc(Br)ccc2n(C)c1=O [Compound V-42, 4-(1-Benzo[1,3]dioxol-5-ylmethyl-piperidin-4-ylamino)-6-bromo-1-methyl-2-oxo-1,2-dihydro-quinoline-3-carboxylic acid dimethylamide]
COc1ccc2oc(=O)cc(NC3CCN(Cc4ccc5[nH]ccc5c4)CC3)c2c1 [II-54, 4-[1-(1H-Indol-5-ylmethyl)-piperidin-4-ylamino]-6-methoxy-chromen-2-one]
COc1ccc2oc(=O)cc(NC3CCN(Cc4cccc(F)c4)CC3)c2c1 [II-79, 4-[1-(3-Fluoro-benzyl)-piperidin-4-ylamino]-6-methoxy-chromen-2-one trifluoroacetate]
O=c1cc(NC2CCN(Cc3ccc4c(c3)OCCCO4)CC2)c2cc(Cl)ccc2o1 [II-51, 6-Chloro-4-[1-(3,4-dihydro-2H-benzo[b][1,4]dioxepin-7-ylmethyl)-piperidin-4-ylamino]-chromen-2-one]
CC(=O)c1ccc(C(C)N2CCC(Nc3cc(=O)oc4ccc(Cl)cc34)CC2)cc1 (racemic) [II-116, 4-{1-[1-(4-acetylphenyl)-ethyl]-piperidin-4-ylamino}-6-chlorochromen-2-one]
CCc1ccc2c(c1)c(NC1CCN(Cc3ccc4c(c3)OCO4)CC1)cc(=O)n2CC [Compound V-17, 4-(1-Benzo[1,3]dioxol-5-ylmethyl-piperidin-4-ylamino)-1,6-diethyl-1H-quinolin-2-one]
Cc1ccc2c(c1)c(NC1CCN(C/C=C/c3ccccc3)CC1)cc(=O)n2C [Compound V-38, 1,6-Dimethyl-4-[1-(3-phenyl-allyl)-piperidin-4-ylamino]-1H-quinolin-2-one]
CCOc1cccc(CN2CCC(Nc3cc(=O)oc4ccc(OC)cc34)CC2)c1 [II-97, 4-[1-(3-Ethoxy-benzyl)-piperidin-4-ylamino]-6-methoxy-chromen-2-one trifluoroacetate]
O=c1cc(NC2CCN(C/C=C/c3ccccc3)CC2)c2cc(Br)ccc2o1 [III-5, 6-Bromo-4-[1-(3-phenyl-allyl)-piperidine-4-ylamino]-chromen-2-one]
COc1ccc2oc(=O)c(Cl)c(NC3CCN(Cc4ccc5c(c4)OCO5)CC3)c2c1 [II-90, 4-(1-Benzo[1,3]dioxol-5-ylmethyl-piperidin-4-ylamino)-3-chloro-6-methoxy-chromen-2-one]
COc1ccc2oc(=O)cc(NC3CCN(Cc4ccccc4)CC3)c2c1 [II-102, 4-(1-Benzyl-piperidin-4-ylamino)-6-methoxy-chromen-2-one trifluoroacetate]
O=c1cc(NC2CCN(Cc3cccc4ccccc34)CC2)c2cc(Cl)ccc2o1 [II-5, 6-Chloro-4-(1-naphthalen-1-ylmethyl-piperidin-4-ylamino)-chromen-2-one]
COc1cccc(CN2CCC(Nc3cc(=O)oc4ccc(OC)cc34)CC2)c1 [II-76, 6-Methoxy-4-[1-(3-methoxy-benzyl)-piperidin-4-ylamino]-chromen-2-one trifluoroacetate]
COc1ccc2oc(=O)cc(NC3CCN(Cc4ccc5ccccc5c4)CC3)c2c1 [II-19, 6-Methoxy-4-(1-naphthalen-2-ylmethyl-piperidin-4-ylamino)-chromen-2-one trifluoroacetate]
CC(C)c1ccc2c(c1)c(NC1CCN(Cc3ccc4c(c3)OCO4)CC1)cc(=O)n2C [Compound V-43, 4-(1-Benzo[1,3]dioxol-5-ylmethyl-piperidin-4-ylamino)-6-isopropyl-1-methyl-1H-quinolin-2-one]
O=c1cc(NC2CCN(Cc3ccc(Cl)cc3)CC2)c2cc(Cl)ccc2o1 [II-59, 6-Chloro-4-{1-(4-chloro-benzyl)-piperidin-4-ylamino}-chromen-2-one]
COc1ccc2oc(=O)cc(NC3CCN(Cc4cccc5sccc45)CC3)c2c1 [II-101, 4-{[1-(1-benzothien-4-ylmethyl)piperidin-4-yl]amino}-6-methoxy-2H-chromen-2-one]
O=c1cc(NC2CCN(Cc3ccc4c(c3)OCO4)CC2)c2cc(OC(F)(F)F)ccc2o1 [II-96, 4-(1-Benzo[1,3]dioxol-5ylmethyl-piperidin-4-ylamino)-6-trifluoromethoxy-chromen-2-one]
COc1ccc(CN2CCC(Nc3cc(=O)oc4ccc(OC)cc34)CC2)cc1 [II-39, 6-Methoxy-4-[1-(4-methoxy-benzyl)-piperidin-4-ylamino]-chromen-2-one trifluoroacetate]
COc1ccc2oc(=O)cc(NC3CCN(Cc4ccc(OC(F)F)cc4)CC3)c2c1 [II-43, 4-[1-(4-Difluoromethoxy-benzyl)-piperidin-4-ylamino]-6-methoxy-chromen-2-one trifluoroacetate]
